Experimental data from paper PMC12472947 (Pharmaceuticals, 2025).
Like-named read-outs stand apart in the source and are kept apart here.

Tests used:
[1] = biological target: T1, hMAO-A (Homo sapiens, UniProt P21397); test: MAO-A inhibition, fluorometric Amplex Red assay; assay type: biochemical; conditions: test concentration of 1 µM; read-out: Percentage of MAO-A inhibition ± SEM
T1 construct: purchased Sigma-Aldrich, Gillingham, UK
T1 sequence (P21397 1-527): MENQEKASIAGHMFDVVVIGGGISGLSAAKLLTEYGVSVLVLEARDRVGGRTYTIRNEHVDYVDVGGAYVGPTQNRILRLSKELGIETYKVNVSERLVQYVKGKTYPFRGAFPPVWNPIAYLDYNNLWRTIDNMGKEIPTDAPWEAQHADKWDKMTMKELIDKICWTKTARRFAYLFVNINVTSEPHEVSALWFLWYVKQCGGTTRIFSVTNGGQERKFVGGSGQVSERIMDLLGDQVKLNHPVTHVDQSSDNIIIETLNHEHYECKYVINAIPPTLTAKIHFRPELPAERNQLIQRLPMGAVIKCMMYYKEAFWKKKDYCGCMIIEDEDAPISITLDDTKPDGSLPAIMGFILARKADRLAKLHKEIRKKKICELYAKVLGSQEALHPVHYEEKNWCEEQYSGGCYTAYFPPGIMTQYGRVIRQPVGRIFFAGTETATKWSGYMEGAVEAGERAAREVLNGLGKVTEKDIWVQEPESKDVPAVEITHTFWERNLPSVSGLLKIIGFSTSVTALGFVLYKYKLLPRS
Protocol: The activity of human recombinant membrane-bound monoamine oxidase isoforms A and B (MAO-A/B) (Sigma-Aldrich, Gillingham, UK) in 50 mM potassium phosphate buffer (pH 7.5) was determined by measuring hydrogen peroxide production coupled to the fluorescent dye Amplex Red (Sigma-Aldrich, UK) at a final concentration of 50 μM, in the presence of horseradish peroxidase (HRP, 2.5 U/mL). This coupling reaction generates the fluorescent product resorufin, which was quantified at 30 °C using a fluorescence plate reader. […].
(§1) Reactions were initiated by adding the substrate and dye after a 30 min preincubation of the inhibitor with the enzyme. Data were analyzed using a three-parameter equation in GraphPad Prism 7.0 (San Diego, USA). Each reported value represents the mean of at least two independent determinations.

[2] = biological target: T2, hH3R (Homo sapiens, UniProt Q9Y5N1); test: H3R radioligand displacement assay ([3H]-N-α-methylhistamine); assay type: binding; conditions: 95% confidence interval in brackets; HEK-293 membranes
T2 construct: expressed in transfected cells; host or cells: HEK-293
Protocol: HEK-293 cells (human embryonic kidney cells) stably expressing hH3R were washed and harvested in PBS buffer (phosphate-buffered saline). […] The cell membrane homogenate was centrifuged (20,000× g, 20 min, 4 °C), and the resulting pellet was resuspended in binding buffer and stored at −80 °C until use.
Prior to experiments, the cell membranes were thawed, homogenized by sonication at 4 °C, and kept in ice-cold binding buffer. Crude membrane extracts (20 μg/well in a final volume of 0.2 mL binding buffer) were incubated with [^3H]-N-α-methylhistamine (2 nM; 78.3 Ci/mmol) and varying concentrations of test compounds. Assays were performed in duplicate, with compound concentrations ranging from 0.01 nM to 100 μM. Incubations proceeded for 90 min at room temperature under continuous agitation.
Bound radioligand was separated from free radioligand by filtration through GF/B filters pretreated with 0.3% (w/v) polyethyleneimine, using a cell harvester. Radioactivity was quantified by liquid scintillation counting. Data were analyzed using GraphPad Prism v8 (San Diego, CA, USA) software, employing non-linear regression analysis.

[3] = biological target: electric eel AChE [EeAChE] (Electrophorus electricus, UniProt O42275); test: biochemical; assay type: biochemical
Protocol: (§2) The anticholinesterase activity was determined using Ellman’s method, adapted as follows. […] Subsequently, 60 μL of 5,5′-dithiobis(2-nitrobenzoic acid) (DTNB, 1.1 mM) and 30 μL of enzyme solution (electric eel AChE [EeAChE], human AChE [hAChE], or equine serum BChE [EqBChE], 0.20 U/mL) containing 1 mg/mL bovine serum albumin (BSA) were added. […] Enzyme activity was calculated as the percentage relative to untreated controls, subtracting the blank reference. IC50 values were derived via non-linear regression analysis of dose–response curves (Figure S4) using GraphPad Prism v7.0.

[4] = biological target: T3, hMAO-B (Homo sapiens, UniProt P27338); test: biochemical; assay type: biochemical; conditions: test concentration of 1 µM; read-out: Percentage of MAO-B inhibition ± SEM
T3 construct: purchased Sigma-Aldrich, Gillingham, UK
T3 sequence (P27338 1-520): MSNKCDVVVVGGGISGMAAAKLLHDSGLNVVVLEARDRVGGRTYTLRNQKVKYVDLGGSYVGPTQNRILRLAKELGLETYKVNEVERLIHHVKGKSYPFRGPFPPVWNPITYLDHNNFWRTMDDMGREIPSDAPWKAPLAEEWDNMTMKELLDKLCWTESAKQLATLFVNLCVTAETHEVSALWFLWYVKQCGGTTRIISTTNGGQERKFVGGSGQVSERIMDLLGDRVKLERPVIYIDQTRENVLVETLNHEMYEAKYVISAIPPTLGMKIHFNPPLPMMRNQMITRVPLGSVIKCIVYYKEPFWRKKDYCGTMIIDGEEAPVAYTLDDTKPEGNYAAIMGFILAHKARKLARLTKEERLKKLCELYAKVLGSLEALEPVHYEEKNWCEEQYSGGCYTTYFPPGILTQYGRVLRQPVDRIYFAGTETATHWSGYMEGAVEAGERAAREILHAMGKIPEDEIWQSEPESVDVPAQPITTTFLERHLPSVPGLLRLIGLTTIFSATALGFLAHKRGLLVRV
Protocol: The activity of human recombinant membrane-bound monoamine oxidase isoforms A and B (MAO-A/B) (Sigma-Aldrich, Gillingham, UK) in 50 mM potassium phosphate buffer (pH 7.5) was determined by measuring hydrogen peroxide production coupled to the fluorescent dye Amplex Red (Sigma-Aldrich, UK) at a final concentration of 50 μM, in the presence of horseradish peroxidase (HRP, 2.5 U/mL). This coupling reaction generates the fluorescent product resorufin, which was quantified at 30 °C using a fluorescence plate reader.
as §1

[5] = biological target: T4, equine serum BChE [EqBChE] (Equus caballus, UniProt P81908); test: biochemical; conditions: Ellman method, read-out: IC50(nM) ± SD BChE (EqBChE)
T4 construct: equine serum BChE [EqBChE]; from tissue; host or cells: equine serum
Protocol: as §2

[6] = biological target: T4, equine serum BChE [EqBChE]; design: method as in PMID 30727776; conditions: Figure 1; ref [22]; read-out: EqBChE (IC50 of prototype); cited from earlier work
[7] = test system: SH-SY5Y neuroblastoma cells; conditions: 50 μM, ref [28],[29]; cited from earlier work

T4 sequence (P81908 whole entry): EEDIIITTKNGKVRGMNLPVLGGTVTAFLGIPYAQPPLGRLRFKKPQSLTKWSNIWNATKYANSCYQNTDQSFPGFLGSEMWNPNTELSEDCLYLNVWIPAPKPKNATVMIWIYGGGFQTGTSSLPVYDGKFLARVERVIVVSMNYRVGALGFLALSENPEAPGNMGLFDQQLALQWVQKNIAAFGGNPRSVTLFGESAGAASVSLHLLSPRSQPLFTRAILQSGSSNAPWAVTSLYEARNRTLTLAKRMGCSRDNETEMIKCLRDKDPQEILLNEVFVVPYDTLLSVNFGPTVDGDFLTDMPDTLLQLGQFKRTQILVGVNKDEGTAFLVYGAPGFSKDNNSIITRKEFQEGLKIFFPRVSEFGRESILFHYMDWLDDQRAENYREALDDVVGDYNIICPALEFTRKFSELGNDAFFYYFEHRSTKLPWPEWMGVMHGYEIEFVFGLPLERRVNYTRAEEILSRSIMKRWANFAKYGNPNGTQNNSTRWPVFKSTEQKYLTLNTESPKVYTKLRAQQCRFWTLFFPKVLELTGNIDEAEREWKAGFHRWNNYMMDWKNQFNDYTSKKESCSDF
Sequence of electric eel AChE [EeAChE] (O42275 24-633): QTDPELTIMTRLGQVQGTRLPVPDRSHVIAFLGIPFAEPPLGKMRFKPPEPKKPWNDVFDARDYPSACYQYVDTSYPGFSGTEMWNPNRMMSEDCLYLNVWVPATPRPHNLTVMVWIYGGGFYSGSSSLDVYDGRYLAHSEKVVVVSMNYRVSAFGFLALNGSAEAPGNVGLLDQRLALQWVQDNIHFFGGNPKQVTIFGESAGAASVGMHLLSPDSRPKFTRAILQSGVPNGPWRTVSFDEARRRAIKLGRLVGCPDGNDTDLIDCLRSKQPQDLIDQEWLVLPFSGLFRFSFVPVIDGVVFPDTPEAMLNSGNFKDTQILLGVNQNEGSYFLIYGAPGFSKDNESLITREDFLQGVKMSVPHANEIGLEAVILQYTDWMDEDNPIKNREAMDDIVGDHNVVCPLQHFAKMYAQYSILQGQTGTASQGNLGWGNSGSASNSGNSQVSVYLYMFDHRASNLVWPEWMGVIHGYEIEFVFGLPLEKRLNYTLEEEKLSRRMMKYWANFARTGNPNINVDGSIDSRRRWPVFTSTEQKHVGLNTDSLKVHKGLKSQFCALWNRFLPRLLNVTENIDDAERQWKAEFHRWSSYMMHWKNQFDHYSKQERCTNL
T2 sequence (Q9Y5N1 whole entry): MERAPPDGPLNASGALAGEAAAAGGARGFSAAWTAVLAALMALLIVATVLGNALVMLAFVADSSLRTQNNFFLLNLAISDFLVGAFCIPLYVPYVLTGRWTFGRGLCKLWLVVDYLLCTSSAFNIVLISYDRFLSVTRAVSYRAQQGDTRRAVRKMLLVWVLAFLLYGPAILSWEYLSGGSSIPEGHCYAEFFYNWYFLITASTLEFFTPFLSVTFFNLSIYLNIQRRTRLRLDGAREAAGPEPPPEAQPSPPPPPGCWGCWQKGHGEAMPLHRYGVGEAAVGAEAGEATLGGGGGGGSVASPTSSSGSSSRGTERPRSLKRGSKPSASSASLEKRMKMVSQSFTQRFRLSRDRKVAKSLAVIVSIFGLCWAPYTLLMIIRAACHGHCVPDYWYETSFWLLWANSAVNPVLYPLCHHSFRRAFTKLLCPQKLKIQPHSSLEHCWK

## O=c1oc2cc(OCCCN3CCCCC3)ccc2cc1-c1cn(-c2ccccc2)nn1 [Compound 1b, 3-(1-Phenyl-1H-1,2,3-triazol-4-yl)-7-(3-(piperidin-1-yl)propoxy)-2H-chromen-2-one]
[1]
  inhibition at 1 µM: 6.4 ± 0.5%
[2]
  Ki: 0.032 µM
[3]; Electric eel AChE, Ellman method, read-out: IC50(nM) ± SD AChE (EeAChE)
  IC50: 1330 ± 45 nM
[3]; Selectivity Index = EqBChE IC50/EeAChE IC50
  SI: 3
[4]
  inhibition at 1 µM: 11.4 ± 1.9%
[5]
  IC50: 3970 ± 94 nM

## CN(C)c1ccc(-c2cc3ccc(OCCN4CCCCC4)cc3oc2=O)cc1 [Compound 2]
[6]
  IC50: 6.37 µM

## Nc1c2c(nc3ccccc13)CCCC2 [tacrine]
[7]
  cell viability: 97%
